Experimental data from ChEMBL document CHEMBL6103619, “Discovery of a Novel CRBN-Recruiting cGAS PROTAC Degrader for the Treatment of Ulcerative Colitis” (J Med Chem, 2025).
pIC50: −log10 of the molar value. Active and inactive are the calls of the source. The rule behind the calls is not given here.

Tests used:
[1] = Inhibition of dsDNA-induced cGAS signaling pathway in human THP1-Lucia ISG cells preincubated with compound for 24 hrs followed by HT-DNA addition and measured after 24 hrs by QUANTI-Luc luciferase reagent based assay; assay type: cell-based
[2] = Inhibition of dsDNA-induced cGAS signaling pathway in mouse RAW-Lucia ISG cells preincubated with compound for 24 hrs followed by HT-DNA addition and measured after 24 hrs by QUANTI-Luc luciferase reagent based assay; assay type: cell-based
THP-1 [3] = test: Induction of cGAS degradation in human THP-1 cells at 10 uM preincubated with compound for 40 hrs followed by HT-DNA stimulation and measured after 8 hrs by Western blot analysis relative to control; assay type: cell-based; details: time 48.0 hrs
[4] = molecular target: Protein cereblon/Cyclic GMP-AMP synthase (Homo sapiens, UniProt Q96SW2+Q8N884); test: PROTAC activity at CRBN/cGAS in human THP-1 cells assessed as induction of cGAS degradation at 10 uM incubated for 48 hrs by Western blot analysis; assay type: cell-based
THP-1 [5] = test: Cytotoxicity against human THP-1 cells assessed as reduction in cell viability at >30 uM incubated for 48 hrs by CCK8 assay; assay type: toxicity, cell-based; details: thp-1, 48 h
[6] = molecular target: T1, Protein cereblon/Cyclic GMP-AMP synthase (Mus musculus) (UniProt Q8C6L5+Q8C7D2); test: (§1) In vivo inhibition of cGAS signaling pathway in DSS-induced ulcerative colitis C57BL/6 mouse model assessed as reduction in cGAS protein level in colon at 50 mg/kg/day, ip preadministered with DSS for 7 days followed by replacement with ultrapure water for 3 days with subsequent compound administration starting from day 4 to 10 and measured on day 11 by Western blot analysis; assay type: functional, organism-based; details: time 8.0 day
Mus musculus [7] = test: as §1, with “Anti-inflammatory activity” for “In vivo inhibition of cGAS signaling pathway”, “NET generation by measuring reduction in citH3” for “cGAS protein”; assay type: functional, organism-based; details: time 8.0 day
[8] = molecular target: T1, Protein cereblon/Cyclic GMP-AMP synthase (Mus musculus); test: as §1, with “200” for “50”, “po” for “ip”; assay type: functional, organism-based; details: time 8.0 day
Mus musculus [9] = test: as §1, with “Anti-inflammatory activity” for “In vivo inhibition of cGAS signaling pathway”, “NET generation by measuring reduction in citH3” for “cGAS protein”, “200” for “50”, “po” for “ip”; assay type: functional, organism-based; details: time 8.0 day

T1 sequence (Q8C6L5 whole entry, looked up): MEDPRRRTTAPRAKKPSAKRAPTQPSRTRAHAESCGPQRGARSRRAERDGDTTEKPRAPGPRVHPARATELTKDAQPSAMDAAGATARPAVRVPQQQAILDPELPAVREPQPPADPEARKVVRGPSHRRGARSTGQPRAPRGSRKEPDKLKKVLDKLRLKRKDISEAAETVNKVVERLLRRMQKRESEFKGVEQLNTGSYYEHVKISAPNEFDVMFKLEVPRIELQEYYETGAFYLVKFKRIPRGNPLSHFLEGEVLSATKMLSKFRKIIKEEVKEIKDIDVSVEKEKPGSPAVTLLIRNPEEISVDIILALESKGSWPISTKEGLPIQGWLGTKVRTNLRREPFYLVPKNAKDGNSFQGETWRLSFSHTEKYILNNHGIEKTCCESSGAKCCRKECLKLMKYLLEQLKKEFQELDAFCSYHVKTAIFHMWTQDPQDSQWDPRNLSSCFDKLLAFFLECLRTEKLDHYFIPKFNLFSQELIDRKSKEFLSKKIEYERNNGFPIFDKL
T1 sequence (Q8C7D2 whole entry, looked up): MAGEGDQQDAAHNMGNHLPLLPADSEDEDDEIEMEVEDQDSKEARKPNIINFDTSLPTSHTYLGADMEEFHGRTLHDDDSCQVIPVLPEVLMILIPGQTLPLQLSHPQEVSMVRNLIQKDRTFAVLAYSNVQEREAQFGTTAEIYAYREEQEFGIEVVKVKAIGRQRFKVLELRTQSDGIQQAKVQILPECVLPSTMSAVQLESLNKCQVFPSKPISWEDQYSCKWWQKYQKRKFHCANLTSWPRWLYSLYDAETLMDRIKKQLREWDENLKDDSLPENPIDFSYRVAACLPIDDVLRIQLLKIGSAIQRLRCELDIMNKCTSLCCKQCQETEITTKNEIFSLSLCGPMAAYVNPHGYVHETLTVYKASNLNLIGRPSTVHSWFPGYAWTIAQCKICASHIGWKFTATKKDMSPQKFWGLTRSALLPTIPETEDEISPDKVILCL
Chain of Protein cereblon/Cyclic GMP-AMP synthase (Q8N884 whole entry, looked up): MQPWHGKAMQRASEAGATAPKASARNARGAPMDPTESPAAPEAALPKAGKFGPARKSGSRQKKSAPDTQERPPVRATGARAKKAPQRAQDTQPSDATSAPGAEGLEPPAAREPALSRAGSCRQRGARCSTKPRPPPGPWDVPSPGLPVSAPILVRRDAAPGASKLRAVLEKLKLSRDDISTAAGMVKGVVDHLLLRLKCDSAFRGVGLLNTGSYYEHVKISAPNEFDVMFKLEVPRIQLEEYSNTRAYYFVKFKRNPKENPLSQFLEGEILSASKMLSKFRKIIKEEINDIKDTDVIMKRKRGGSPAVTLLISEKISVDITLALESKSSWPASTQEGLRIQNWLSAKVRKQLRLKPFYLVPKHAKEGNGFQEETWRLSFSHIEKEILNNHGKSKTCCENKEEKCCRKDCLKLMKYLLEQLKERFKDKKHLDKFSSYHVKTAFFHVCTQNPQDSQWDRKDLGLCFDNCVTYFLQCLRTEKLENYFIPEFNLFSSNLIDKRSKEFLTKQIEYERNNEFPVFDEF
Chain of Protein cereblon/Cyclic GMP-AMP synthase (Q96SW2 whole entry, looked up): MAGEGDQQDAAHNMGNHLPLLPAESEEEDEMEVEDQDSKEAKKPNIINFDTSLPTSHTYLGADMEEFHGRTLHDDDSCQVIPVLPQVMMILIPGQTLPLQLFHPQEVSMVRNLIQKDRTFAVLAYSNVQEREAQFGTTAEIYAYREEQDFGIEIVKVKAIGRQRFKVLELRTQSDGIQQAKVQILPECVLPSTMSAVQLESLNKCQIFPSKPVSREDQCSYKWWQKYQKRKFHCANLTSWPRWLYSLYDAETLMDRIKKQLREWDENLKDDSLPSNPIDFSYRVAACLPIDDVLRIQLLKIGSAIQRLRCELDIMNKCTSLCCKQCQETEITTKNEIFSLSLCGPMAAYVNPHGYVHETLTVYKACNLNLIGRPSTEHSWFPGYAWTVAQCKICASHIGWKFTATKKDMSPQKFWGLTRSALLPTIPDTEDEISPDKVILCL

pIC50 [1]	pIC50 [2]	Activity [4]	Compound	Activity (THP-1 [3]) [%]	Activity (THP-1 [5])	inhibition [6]	Activity (Mus musculus [7])	inhibition [8]	Activity (Mus musculus [9])
5.39	4.88	inactive	Cn1ccc(-c2cc(Cl)c(Cl)c3[nH]c4c(c23)CN(C(=O)CO)CC4)n1	8.3	Toxic	Active; Minor Changes Observed	Active	–	–
–	–	–	Nc1ccc(O)c(C(=O)O)c1	–	–	–	–	Active; Minor Changes Observed	Active
